Experimental findings from article PMC3914206 are described below.

What all share (assay type): binding
Experiment [1] deals with T1, panel of 442 kinases (Homo sapiens, UniProt P07947).
T1 construct: purchased KINOMEscan
As to conditions: kinase YES; compound concentration 10 µM. The text has this:
(§1) We assessed the selectivity of members of this scaffold using the KINOMEscan methodology across a near comprehensive panel of 442 kinases [[18,27]].

Experiment [2] concerns the target T2, panel of 442 kinases (Homo sapiens, UniProt Q8NFD2).
T2 construct: purchased KINOMEscan
T2 sequence (Q8NFD2 1-765): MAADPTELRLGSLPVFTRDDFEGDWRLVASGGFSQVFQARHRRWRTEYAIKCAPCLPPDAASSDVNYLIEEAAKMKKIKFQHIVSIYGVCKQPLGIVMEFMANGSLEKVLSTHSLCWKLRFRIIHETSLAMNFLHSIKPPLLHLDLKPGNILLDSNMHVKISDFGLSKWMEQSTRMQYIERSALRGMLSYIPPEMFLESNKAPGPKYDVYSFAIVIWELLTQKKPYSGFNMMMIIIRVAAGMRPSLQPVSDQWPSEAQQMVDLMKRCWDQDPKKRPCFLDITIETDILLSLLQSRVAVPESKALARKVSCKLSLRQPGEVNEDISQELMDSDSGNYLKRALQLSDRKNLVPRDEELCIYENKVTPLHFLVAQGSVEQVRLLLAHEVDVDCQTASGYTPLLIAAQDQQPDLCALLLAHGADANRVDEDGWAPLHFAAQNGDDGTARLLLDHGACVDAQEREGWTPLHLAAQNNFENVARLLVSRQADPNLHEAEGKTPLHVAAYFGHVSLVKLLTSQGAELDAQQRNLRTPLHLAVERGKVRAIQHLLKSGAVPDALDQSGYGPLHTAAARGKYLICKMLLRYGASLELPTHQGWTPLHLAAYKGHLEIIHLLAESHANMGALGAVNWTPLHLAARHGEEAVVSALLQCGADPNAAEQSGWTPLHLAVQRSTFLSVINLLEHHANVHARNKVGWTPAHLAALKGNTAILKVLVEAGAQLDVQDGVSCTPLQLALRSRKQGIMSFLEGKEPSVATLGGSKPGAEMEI
As to conditions: Compound Concentration 10 µM.
Excerpt: as §1

The target of experiment [3] is T3, panel of 442 kinases (Homo sapiens, UniProt Q07002).
T3 construct: purchased KINOMEscan
The note with it: Compound Concentration 10 µM.
Excerpt: as §1

SMILES strings stand for the structures.

T1 sequence (P07947 whole entry): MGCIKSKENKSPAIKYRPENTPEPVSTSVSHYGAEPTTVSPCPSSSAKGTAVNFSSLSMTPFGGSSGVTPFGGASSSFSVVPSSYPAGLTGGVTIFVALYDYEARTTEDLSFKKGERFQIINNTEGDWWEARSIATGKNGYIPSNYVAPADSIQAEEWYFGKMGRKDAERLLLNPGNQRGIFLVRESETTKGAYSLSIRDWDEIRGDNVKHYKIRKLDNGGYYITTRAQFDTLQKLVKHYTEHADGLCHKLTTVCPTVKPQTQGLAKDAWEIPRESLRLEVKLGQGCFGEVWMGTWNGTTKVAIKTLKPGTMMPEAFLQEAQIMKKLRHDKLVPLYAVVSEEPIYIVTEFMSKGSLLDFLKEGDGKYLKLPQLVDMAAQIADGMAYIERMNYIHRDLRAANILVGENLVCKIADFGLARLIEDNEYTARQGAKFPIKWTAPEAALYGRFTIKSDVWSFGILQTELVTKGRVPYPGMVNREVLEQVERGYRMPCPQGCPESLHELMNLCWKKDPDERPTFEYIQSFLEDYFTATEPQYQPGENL
T3 sequence (Q07002 whole entry): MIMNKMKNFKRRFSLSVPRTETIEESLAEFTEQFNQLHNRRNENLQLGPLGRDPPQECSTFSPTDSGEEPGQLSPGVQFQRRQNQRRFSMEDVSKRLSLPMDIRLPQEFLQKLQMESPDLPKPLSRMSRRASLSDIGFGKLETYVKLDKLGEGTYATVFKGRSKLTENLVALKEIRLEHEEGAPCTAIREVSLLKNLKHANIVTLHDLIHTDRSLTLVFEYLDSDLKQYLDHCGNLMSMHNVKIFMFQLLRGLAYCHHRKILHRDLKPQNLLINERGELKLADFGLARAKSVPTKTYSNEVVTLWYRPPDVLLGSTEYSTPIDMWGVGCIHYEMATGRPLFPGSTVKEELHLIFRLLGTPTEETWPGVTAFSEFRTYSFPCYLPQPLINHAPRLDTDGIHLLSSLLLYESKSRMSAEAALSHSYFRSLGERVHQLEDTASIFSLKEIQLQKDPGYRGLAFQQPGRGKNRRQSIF

As for `CCOc1cc(C(=O)N2CCC(N3CCN(C)CC3)CC2)ccc1Nc1ncc2c(n1)N(C1CCCC1)c1ccccc1C(=O)N2C` [Compound 26], on panel of 442 kinases [1], the “% Ctrl, YES” value stood at 100 % Ctrl. Further, the “KINOMEscan: ANKK1” value on panel of 442 kinases [2] is reported as 84. The “KINOMEscan: PCTK3” value at panel of 442 kinases [3] is reported as 100.

On to `COc1cc(C(=O)N2CCC(N3CCN(C)CC3)CC2)ccc1Nc1ncc2c(n1)N1CCc3cccc(c31)C(=O)N2C` [Compound 24], for which the “% Ctrl, YES” value at panel of 442 kinases [1] was 100 % Ctrl.

Consider `COc1cc(C(=O)N2CCC(N3CCN(C)CC3)CC2)ccc1Nc1ncc2c(n1)N(C)c1ccccc1C(=O)N2C` [15 (LRRK2-IN-1)], for which the “% Ctrl, YES” value at panel of 442 kinases [1] stood at 100 % Ctrl. Moreover, at panel of 442 kinases [2], the “KINOMEscan: ANKK1” value is recorded as 100. The “KINOMEscan: PCTK3” value on panel of 442 kinases [3] was found to be 100.

For the molecule `COc1cc(C(=O)N2CCC(N3CCN(C)CC3)CC2)ccc1Nc1ncc2c(n1)N(C1CCCC1)c1ccccc1C(=O)N2C` [Compound 25, 11-cyclopentyl-2-((2-methoxy-4-(4-(4-methylpiperazin-1-yl)piperidine-1-carbonyl)phenyl)amino)-5-methyl-5H-benzo[e]pyrimido[5,4-b][1,4]diazepin-6(11H)-one], the “% Ctrl, YES” value on panel of 442 kinases [1] is listed as 89 % Ctrl. Further, the “KINOMEscan: ANKK1” value at panel of 442 kinases [2] was 85. In addition, the “KINOMEscan: PCTK3” value at panel of 442 kinases [3] is 100.
